Measured values as given in patent US11014884B2 (Global Blood Therapeutics, Inc., priority 2018, dated 2021).

How the values were obtained:
[1] = target: Purified hemoglobin (Homo sapiens, UniProt P69905); assay: Hemoglobin assay: oxygen equilibrium curves with purified hemoglobin, change in p50; type: biochemical; conditions: purified hemoglobin 25 μM, 1 h at 37° C.
Experimental: Hemoglobin assay: Oxygen equilibrium curves (OECs) were collected as described above. Purified hemoglobin (25 μM) was incubated for 1 h at 37° C. with the indicated compounds (30 μM for compounds 6, 7, 8, and 11; 25 μM for compounds 55 to 67 (Enantiomer 1 and Enantiomer 2)) in 5 ml of TES (2-[[1,3-dihydroxy-2-(hydroxymethyl)propan-2-yl]amino]ethanesulfonic acid)/saline buffer prior to measurements. The samples were then oxygenated with compressed air within the Hemox Analyzer and the OECs were collected during deoxygenation as previously described. p50 values were obtained using a non-linear regression analysis, and Δp50(%) was calculated as described above.

[2] = target: T1, hemoglobin (Homo sapiens, UniProt P69905); assay: Whole blood assay: oxygen equilibrium curves (Hemox Analyzer), change in p50; type: cell-based; conditions: equimolar to hemoglobin, 1 h at 37° C.
T1 construct: from tissue; host or cells: whole blood (red blood cells)
Experimental: Oxygen equilibrium curves (OECs) were collected using a TCS Hemox Analyzer (TCS Scientific Company, New Hope, Pa., USA) to measure changes in the binding affinity of 02 to Hb. Whole blood was incubated for 1 h at 37° C. with the indicated compounds in an equimolar ratio of hemoglobin to compound and diluted into TES (2-[[1,3-dihydroxy-2-(hydroxymethyl)propan-2-yl]amino]ethanesulfonic acid)/saline buffer prior to measurements. For example, for whole blood at 20% hematocrit [Hct], which corresponds to 1 mM Hb, a compound concentration of 1 mM was used (for example, for compounds 1-53), and the incubated sample diluted 50- to 100-fold. The concentration for compound 54 was 1.7 mM and in equimolar ratio to hemoglobin. The diluted samples were then oxygenated with compressed air within the Hemox Analyzer, and the OECs were collected during deoxygenation as previously described (Guarnone et al., Haematologica, 1995, 80, 426-430). p50 (partial pressure of 02 at which Hb is 50% saturated with 02) values were obtained using a non-linear regression analysis. Percentage change in p50 [Δp50(%)] was calculated as follows: Δp50(%)=[(p50 of control)−p50 with compound)/p50 control]×100.

[3] = whole blood 20% Hct (1 mM Hb), compound 1 mM

Sequence of Purified hemoglobin (P69905 2-142 limits assumed): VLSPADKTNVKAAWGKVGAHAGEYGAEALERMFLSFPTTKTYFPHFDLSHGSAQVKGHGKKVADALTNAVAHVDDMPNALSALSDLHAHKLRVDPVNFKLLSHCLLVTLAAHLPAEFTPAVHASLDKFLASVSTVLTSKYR
Sequence of Purified hemoglobin (P68871 2-147 partner limits assumed): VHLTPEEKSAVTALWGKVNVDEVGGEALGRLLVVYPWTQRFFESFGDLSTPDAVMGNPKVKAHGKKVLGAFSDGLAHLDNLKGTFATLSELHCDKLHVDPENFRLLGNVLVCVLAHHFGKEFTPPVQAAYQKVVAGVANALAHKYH
T1 sequence (P69905 2-142 limits assumed): as the sequence (P69905 2-142 limits assumed) above
T1 sequence (P68871 2-147 partner limits assumed): as the sequence (P68871 2-147 partner limits assumed) above

Compound	Delta-p50 (%) ([1]; compound 25 μM)	Delta-p50 (%) [2, 3] [%]	further results
O=Cc1cccc(C(=O)N2CCC[C@@H](COc3cccc(O)c3C=O)C2)c1O [Compound 58]	71	–	–
O=Cc1c(O)cccc1OC[C@H]1CN(C(=O)c2cccc(O)c2C=O)CCO1 [Compound 59, 2-[[(2R)-4-(2-formyl-3-hydroxybenzoyl)morpholin-2-yl]methoxy]-6-hydroxybenzaldehyde]	71	–	–
O=Cc1c(O)cccc1OC[C@H]1CN(C(=O)c2cccc(O)c2C=O)CCO1 [Compound 62, 2-[[(2R)-4-(2-formyl-3-hydroxybenzoyl)morpholin-2-yl]methoxy]-6-hydroxybenzaldehyde]	69	–	–
O=Cc1c(O)cccc1OCC1CSCCN1C(=O)c1cccc(O)c1C=O (single isomer, unassigned) [67 (Enantiomer 2), 2-((4-(2-formyl-3-hydroxybenzoyl)thiomorpholin-3-yl)methoxy)-6-hydroxybenzaldehyde]	69.3	–	–
CC1(C)CN(C(=O)c2cccc(O)c2C=O)C(COc2cccc(O)c2C=O)CO1 (stereo in doubt) [Compound 64]	67	–	–
CC1CN(C(=O)c2cccc(O)c2C=O)C(COc2cccc(O)c2C=O)CO1 (stereo not shown) [Compound 60, 2-((4-(2-formyl-3-hydroxybenzoyl)-6-methylmorpholin-3-yl)methoxy)-6-hydroxybenzaldehyde]	67	–	–
O=Cc1ccccc1OC[C@@H]1COCCN1C(=O)c1cccc(O)c1C=O [Compound 56, (S)-2-(3-((2-formylphenoxy)methyl)morpholine-4-carbonyl)-6-hydroxybenzaldehyde]	70	–	–
COc1ncc(C=O)cc1-c1ncccc1COc1cccc(O)c1C=O [Compound 7, 3-[(2-formyl-3-hydroxyphenoxy)methyl]-2′-methoxy-[2,3′-bipyridine]-5′-carbaldehyde]	–	32.5	Delta-p50 (%) ([1]; compound 30 μM): 58.29%
COc1ccc(C=O)cc1-c1ncccc1COc1cccc(O)c1C=O [Compound 6, 3-{3-[(2-formyl-3-hydroxyphenoxy)methyl]pyridin-2-yl}-4-methoxybenzaldehyde]	–	16.7	Delta-p50 (%) ([1]; compound 30 μM): 60.66%
O=Cc1c(O)cccc1CN1C(=O)CCCC1COc1cccc(O)c1C=O (racemic) [Compound 66, 2-((1-(2-formyl-3-hydroxybenzyl)-6-oxopiperidin-2-yl)methoxy)-6-hydroxybenzaldehyde]	71	–	–
O=Cc1cccc(-c2ncccc2COc2cccc(O)c2C=O)c1 [Compound 8, 3-{3-[(2-formyl-3-hydroxyphenoxy)methyl]pyridin-2-yl}benzaldehyde]	–	44.8	Delta-p50 (%) ([1]; compound 30 μM): 57.3%
CC1(C)C[C@@H](COc2cccc(O)c2C=O)N(C(=O)c2cccc(O)c2C=O)C1 [Compound 65, 2-[[(2S)-1-(2-formyl-3-hydroxybenzoyl)-4,4-dimethylpyrrolidin-2-yl]methoxy]-6-hydroxybenzaldehyde]	69	–	–
COc1ccc(C(=O)N2CCCC[C@H]2COc2cccc(O)c2C=O)c(C=O)c1O [Compound 57, (S)-6-(2-((2-formyl-3-hydroxyphenoxy)methyl)piperidine-1-carbonyl)-2-hydroxy-3-methoxybenzaldehyde]	71	–	–
O=Cc1cc(C(=O)N2CCC[C@@H](COc3cccc(O)c3C=O)C2)ccc1O [Compound 61, 2-[[(3R)-1-(3-formyl-4-hydroxybenzoyl)piperidin-3-yl]methoxy]-6-hydroxybenzaldehyde]	71	–	–
O=Cc1cccc(C(=O)N2CCC[C@H](COc3cccc(O)c3C=O)C2)c1 [Compound 22, 2-{[(3S)-1-(3-formylbenzoyl)piperidin-3-yl]methoxy}-6-hydroxybenzaldehyde]	–	68.5	–
COc1ccc(C=O)c(C(=O)N2CCCC[C@H]2COc2cccc(O)c2C=O)c1 [Compound 15, 2-[(2S)-2-[(2-formyl-3-hydroxyphenoxy)methyl]piperidine-1-carbonyl]-4-methoxybenzaldehyde]	–	19	–
O=Cc1c(O)cccc1OC[C@@H]1CCCCCN1C(=O)c1cccc(O)c1C=O (stereo in doubt) [Compound 38, 2-{2-[(2-formyl-3-hydroxyphenoxy)methyl]azepane-1-carbonyl}-6-hydroxybenzaldehyde]	–	33.8	–
CCOc1ccc(-c2ncccc2COc2cccc(O)c2C=O)nc1C=O [Compound 45, 5-ethoxy-3′-[(2-formyl-3-hydroxyphenoxy)methyl]-[2,2′-bipyridine]-6-carbaldehyde]	–	55.7	–
O=Cc1c(O)cccc1OC[C@@H]1CCCN(C(=O)Oc2cccc(O)c2C=O)C1 [Compound 63, 2-formyl-3-hydroxyphenyl (3R)-3-(2-formyl-3-hydroxyphenoxymethyl)piperidine-1-carboxylate]	70	–	–
CCOc1cccc(C(=O)N2CCCC[C@H]2COc2cccc(O)c2C=O)c1C=O [Compound 39, 2-ethoxy-6-[(2S)-2-[(2-formyl-3-hydroxyphenoxy)methyl]piperidine-1-carbonyl]benzaldehyde]	–	79.5	–
O=Cc1cc(-c2ncccc2COc2cccc(O)c2C=O)co1 [Compound 11, 4-{3-[(2-formyl-3-hydroxyphenoxy)methyl]pyridin-2-yl}furan-2-carbaldehyde]	–	17.2	Delta-p50 (%) ([1]; compound 30 μM): 14.12%
O=Cc1nc(-c2ncccc2COc2cccc(O)c2C=O)cs1 [Compound 12, 4-{3-[(2-formyl-3-hydroxyphenoxy)methyl]pyridin-2-yl}-1,3-thiazole-2-carbaldehyde]	–	2.9	–
O=Cc1ccccc1OC[C@@H]1CCCCN1C(=O)c1cccc(O)c1C=O [Compound 55, (S)-2-(2-((2-formylphenoxy)methyl)piperidine-1-carbonyl)-6-hydroxybenzaldehyde]	71	–	–
O=Cc1c(O)cccc1OC[C@@H]1CCCN1C(=O)c1cccc(O)c1C=O [Compound 30, 2-[(2S)-2-[(2-formyl-3-hydroxyphenoxy)methyl]pyrrolidine-1-carbonyl]-6-hydroxybenzaldehyde]	–	45	–
CC1(COc2cccc(O)c2C=O)COCCN1C(=O)c1cccc(O)c1C=O (stereo not shown) [Compound 54, 2-((4-(2-formyl-3-hydroxybenzoyl)-3-methylmorpholin-3-yl)methoxy)-6-hydroxybenzaldehyde]	–	–	Delta-p50 (%) ([2]; whole blood, compound 1.7 mM): 72.6%
O=Cc1c(O)cccc1OCC1CSCCN1C(=O)c1cccc(O)c1C=O (single isomer, unassigned) [67 (Enantiomer 1), 2-((4-(2-formyl-3-hydroxybenozyl)thiomorpholin-3-yl)methoxy)-6-hydroxybenzaldehyde]	67.2	–	–
CCOc1cccc(C(=O)N2CCC[C@H]2COc2cccc(O)c2C=O)c1C=O [Compound 52, 2-ethoxy-6-[(2S)-2-[(2-formyl-3-hydroxyphenoxy)methyl]pyrrolidine-1-carbonyl]benzaldehyde]	–	75.5	–
